Measurements as given in US20080311212A1, “CRYSTALLINE ISOXAZOLE DERIVATIVE AND PHARMACEUTICAL PREPARATION THEREOF” (Dainippon Sumitomo Pharma Co., Ltd., priority 2001, published 2008).

What was measured:
Format in all cases: physicochemical
[1] = Crystal type stability on grinding / in aqueous suspension; conditions: for change of crystal type during grinding: α: wet grinding under high-pressure conditions, suspended in water, β: pneumatic and wet grinding
Excerpt: When the α type crystals were subjected to pneumatic grinding, they adhered remarkably to the inside of a grinding apparatus. Therefore, their pulverization to a desirable size by one run of grinding operation was difficult, so that it was necessary to grind them repeatedly several times. Since it often became necessary to remove the crystals adhering to the inside, the grinding efficiency and the yield were low.
When the β type crystals were subjected to pneumatic grinding, they hardly adhered to the inside of a grinding apparatus, were easy to handle in a process of their formulation into a pharmaceutical preparation, and could be continuously ground. The β type crystals could easily be ground also by a wet grinding method and made it possible to produce finer powder that could be formulated into a pharmaceutical preparation.
The β type crystals of the present invention may be obtained also by stirring phosphate or a type crystals of the isoxazole derivative of the formula 1 in a suspended state in water for a definite time. In the case of the phosphate, the β type crystals could be obtained, for example, by stirring the phosphate at 50° C. for about 5 hours. […] So long as seed crystals for the β type crystals are used, it is also possible to produce the β type crystals by using any of hydrophobic organic solvents such as aromatic hydrocarbons (e.g. toluene and benzene), ethers (e.g. t-butyl methyl ether, diisopropyl ether and diethyl ether), aliphatic hydrocarbons (e.g. cyclohexane, hexane and heptane), halogen-containing solvents (e.g. chloroform, methylene chloride and 1,2-dichloroethane) and esters (e.g. ethyl acetate). For example, the isoxazole derivative of the formula 1 may be crystallized by dissolving the derivative in a mixed solvent of toluene and 2-propanol and adding hexane thereto.

[2] = Dry pneumatic grinding of crystals 1 (A-O Jet Mill): amount adhering to inside of apparatus; conditions: 7 g crystals charged, pneumatic grinding at 0.49 MPa
Excerpt: Crystals were charged into an A-O Jet Mill (mfd. by Seishin Enterprise Co., Ltd.) and subjected to pneumatic grinding at a forcing pressure of 0.49 MPa and a grinding pressure of 0.49 MPa.

[3] = Wet high-pressure grinding of crystals (Microfluidizer): particle size distribution of ground crystals; conditions: wet high-pressure grinding in water, 100 MPa, laser diffraction (wet measurement)
Protocol: Crystals were charged into Microfluidizer Model M110Y (mfd. by Mizuho Industrial Co., Ltd.) together with water and subjected to high-pressure grinding. […] In this case, the α type crystals were solidified during the grinding. […] The particle size distribution was measured by dispersing the ground crystals in water in an agate mortar. A laser diffraction particle size distribution meter (wet measurement) was used for measuring the particle size distribution.

[4] = Dry pneumatic grinding of crystals 2 (Jet O Mill): particle size distribution of ground crystals; conditions: one run of dry pneumatic grinding, 0.44-0.49 MPa, laser diffraction (dry measurement)
Excerpt: Crystals were charged into a Jet 0 Mill Model JOMO101 (mfd. by Seishin Enterprise Co., Ltd.) and subjected to pneumatic grinding at a forcing pressure and a grinding pressure (which had been set at the same pressure) of 0.44 MPa to 0.49 MPa. […] A laser diffraction particle size distribution meter (dry measurement) was used for measuring the particle size distribution. It has already been confirmed that repeated grinding or the increase of the grinding pressure is necessary for further particle size reduction.

| SMILES | change of crystal type during grinding [1] | Adhering amount [2] [g] | Undersize particle D50% particle size ([3]; D50%) [μm] | Undersize particle D50% particle size ([3]; first D50% line) [μm] | Undersize particle D50% particle size ([4]; D50%) [μm] | Undersize particle D50% particle size ([4]; first D50% line) [μm] | thermodynamic stability of crystal type ([1]; stirring phosphate or α type crystals suspended in water gives β type crystals) |
| --- | --- | --- | --- | --- | --- | --- | --- |
| C[C@@H](c1ccc(-c2ccccc2)c(F)c1)c1cc(/N=C(/N)N2CCOCC2)on1 [α type crystals, 3-[(1S)-1-(2-fluorobiphenyl-4-yl)ethyl]-5-{[amino(morpholin-4-yl)methylene]amino}isoxazole] | changed to the β type crystals | 2.06 | 58.1 | 26.1 | 79.3 | 27.6 | – |
| C[C@@H](c1ccc(-c2ccccc2)c(F)c1)c1cc(/N=C(/N)N2CCOCC2)on1 [β type crystals, 3-[(1S)-1-(2-fluorobiphenyl-4-yl)ethyl]-5-{[amino(morpholin-4-yl)methylene]amino}isoxazole] | did not change the crystal type | 0.00 | 3.2 | 1.7 | 10.2 | 4.7 | thermodynamically more stable than the α type crystals |
